In ChEMBL document CHEMBL2074577, “Resistance to mitoxantrone in multidrug-resistant MCF7 breast cancer cells: evaluation of mitoxantrone transport and the role of multidrug resistance protein family proteins” (Cancer Res, 2001) one finds Activity data, which are given here for one compound.

This series concerns the target Multidrug resistance-associated protein 1 (Homo sapiens, UniProt P33527). Put plainly: TP_TRANSPORTER: efflux in MCF7/VP and MCF cells. Format: functional, cell-based.

Chain of Multidrug resistance-associated protein 1 (P33527 whole entry): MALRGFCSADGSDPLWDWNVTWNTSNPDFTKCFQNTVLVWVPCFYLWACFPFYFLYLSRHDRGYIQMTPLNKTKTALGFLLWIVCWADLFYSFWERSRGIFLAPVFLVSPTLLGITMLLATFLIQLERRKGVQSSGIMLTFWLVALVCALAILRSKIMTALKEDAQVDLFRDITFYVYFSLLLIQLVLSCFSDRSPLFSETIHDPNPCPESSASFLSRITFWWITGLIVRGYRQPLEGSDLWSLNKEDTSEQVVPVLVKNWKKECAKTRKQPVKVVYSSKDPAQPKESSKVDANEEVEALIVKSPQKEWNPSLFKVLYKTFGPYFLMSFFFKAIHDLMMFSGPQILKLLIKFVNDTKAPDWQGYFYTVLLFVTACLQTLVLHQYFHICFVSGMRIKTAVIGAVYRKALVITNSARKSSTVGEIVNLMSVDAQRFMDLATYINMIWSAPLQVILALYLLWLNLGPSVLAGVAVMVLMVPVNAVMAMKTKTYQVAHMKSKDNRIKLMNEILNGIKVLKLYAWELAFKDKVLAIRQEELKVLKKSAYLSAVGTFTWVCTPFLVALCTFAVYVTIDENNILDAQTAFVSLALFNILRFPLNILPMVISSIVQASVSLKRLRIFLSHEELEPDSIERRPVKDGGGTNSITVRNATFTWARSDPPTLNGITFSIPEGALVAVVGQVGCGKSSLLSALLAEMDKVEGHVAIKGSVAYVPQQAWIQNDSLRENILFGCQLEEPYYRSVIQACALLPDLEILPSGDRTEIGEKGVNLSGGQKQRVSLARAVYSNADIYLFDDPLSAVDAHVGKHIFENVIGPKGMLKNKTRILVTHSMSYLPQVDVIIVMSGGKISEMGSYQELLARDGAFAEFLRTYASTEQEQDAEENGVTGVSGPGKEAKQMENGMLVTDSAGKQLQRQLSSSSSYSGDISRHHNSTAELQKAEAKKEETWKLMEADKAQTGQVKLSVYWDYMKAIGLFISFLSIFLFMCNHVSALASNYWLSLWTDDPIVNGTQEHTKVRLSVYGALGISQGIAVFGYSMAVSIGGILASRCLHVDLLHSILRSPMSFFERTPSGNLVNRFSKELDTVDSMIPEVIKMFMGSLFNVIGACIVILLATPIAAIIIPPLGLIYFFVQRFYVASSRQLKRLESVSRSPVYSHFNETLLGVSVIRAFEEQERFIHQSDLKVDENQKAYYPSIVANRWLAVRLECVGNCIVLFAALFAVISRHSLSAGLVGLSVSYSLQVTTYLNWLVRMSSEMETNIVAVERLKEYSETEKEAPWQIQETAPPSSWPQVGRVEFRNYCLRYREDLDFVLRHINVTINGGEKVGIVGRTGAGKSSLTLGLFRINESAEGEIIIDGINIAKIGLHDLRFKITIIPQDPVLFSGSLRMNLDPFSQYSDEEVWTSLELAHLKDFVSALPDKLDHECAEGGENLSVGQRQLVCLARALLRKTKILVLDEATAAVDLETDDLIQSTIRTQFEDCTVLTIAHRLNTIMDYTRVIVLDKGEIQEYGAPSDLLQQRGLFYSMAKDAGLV

In the case of `O=C1c2c(O)ccc(O)c2C(=O)c2c(NCCNCCO)ccc(NCCNCCO)c21` [MITOXANTRONE], the Activity entry was “substrate [+]”.
